The subject of one test is IGF-1 and IGF-2. The settings on record: cited from earlier work.
Test [1] relates to patient suffering from reactive hypoglycemia. Description: Treatment of reactive hypoglycemia. The class given is in vivo, human. The settings on record: long-acting controlled release formulation; for IGF-2 levels: serum. The procedure: A patient suffering from reactive hypoglycemia has a serum sample evaluated for IGF-1 and IGF-2 levels. IGF-1 levels are normal but IGF-2 levels are more than two standard deviations below the expected levels for a person of the same age, sex and body weight. The patient is treated by administering IGF-2 or 22K-GH in a long-acting controlled release formulation.

For a further test, the target named is bp3 (Homo sapiens, UniProt P17936). The conditions noted are these: cited from earlier work.
Chain of bp3 (P17936 28-291): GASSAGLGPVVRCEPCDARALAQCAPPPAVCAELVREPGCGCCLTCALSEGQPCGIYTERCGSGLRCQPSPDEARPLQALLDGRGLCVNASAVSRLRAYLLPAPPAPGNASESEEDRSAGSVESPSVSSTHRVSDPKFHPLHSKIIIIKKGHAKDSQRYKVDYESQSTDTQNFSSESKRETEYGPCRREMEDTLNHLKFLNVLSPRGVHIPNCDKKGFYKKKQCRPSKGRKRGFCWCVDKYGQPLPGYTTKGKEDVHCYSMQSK

Regarding “22K-GH: the larger human growth hormone isoform”, the “effects on the synthesis and secretion of IGFs” value in the test on IGF-1 and IGF-2 was “stimulate both IGF-1 and IGF-2”. In test [1], the hypoglycemic episodes entry is recorded as “less frequent” and the IGF-2 levels result is listed as “increased”.
Take “IGF-2: IGF polypeptide; competes with insulin for binding to the insulin receptor”: in test [1], the hypoglycemic episodes entry is “less frequent” and the IGF-2 levels result is listed as “increased”. Moreover, in the test with bp3, the “affinity to bp3” value is listed as “equal affinity”.
Regarding “IGF-1: IGF polypeptide in serum that binds bp3”, the “affinity to bp3” value with bp3 was “equal affinity”.
